AC50, IC50 and EC50 data for 6 compounds are collected here from ChEMBL document CHEMBL1201862, “PubChem BioAssay data set” (2004).

Calls of active or inactive are those of the source.

Test [1] deals with T1, CAAX prenyl protease 2 (Saccharomyces cerevisiae S288c, UniProt Q03530).
T1 sequence (Q03530 whole entry): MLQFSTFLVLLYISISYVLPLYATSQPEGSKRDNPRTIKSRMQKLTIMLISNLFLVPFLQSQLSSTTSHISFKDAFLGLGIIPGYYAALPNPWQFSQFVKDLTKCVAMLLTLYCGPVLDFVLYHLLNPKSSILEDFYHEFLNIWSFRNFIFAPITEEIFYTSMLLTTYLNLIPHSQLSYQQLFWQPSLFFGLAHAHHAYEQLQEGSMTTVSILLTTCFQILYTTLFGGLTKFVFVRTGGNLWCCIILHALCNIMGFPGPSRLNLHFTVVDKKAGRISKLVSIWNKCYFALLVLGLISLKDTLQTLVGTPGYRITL
The class given is biochemical.

Test [2] deals with Induced myeloid leukemia cell differentiation protein Mcl-1 (Homo sapiens, UniProt Q07820). The experiment in a line: Mcl-1/Noxa binding inhibitor potency, dose response, biochemical, TR-FRET (AID 1417). It is filed as functional.
The target in test [3] is 26S proteasome non-ATPase regulatory subunit 14 (Homo sapiens, UniProt O00487). The experiment in a line: inhibition of proteasome subunit RPN11 – biochemical, fluorescence polarization, uHTS hits, confirmation (AID 602368). It is filed as functional.
Test [4] concerns the target 72 kDa type IV collagenase (Homo sapiens, UniProt P08253). The test is described as follows: Dose Response validation of uHTS RPN11 inhibitor hits using a MMP-2 Fluorescence assay. The class given is functional.
Test [5] can be described thus: growth suppression of PTEN-null colon cells, dose response, cell-based, HCT116 PTEN knockout (AID 1047).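 Note: HCT116 colon tumor cells with PTEN knocked out; cells exposed to compound for 60 hours before readout; potency for loss of cell viability measured by luminescence.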 It is filed as functional.
In test [6] the target is Prothrombin (Bos taurus, UniProt P00735). The experiment in a line: thrombin inhibition, dose response, biochemical, fluorescence polarization, uHTS hits (AID 602369). It is filed as functional.
Test [7] is described as follows: growth suppression of beta-catenin-knockout colon cells, dose response, cell-based, HCT116, human colon tumor (AID 1045).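 Note: HCT116 colon tumor cells with beta catenin knocked out; cells exposed to compound for 60 hours.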 The class given is functional.
The target in test [8] is T2, Rac GTPase-activating protein 1 (Homo sapiens, UniProt Q9H0H5).
T2 sequence (Q9H0H5 whole entry): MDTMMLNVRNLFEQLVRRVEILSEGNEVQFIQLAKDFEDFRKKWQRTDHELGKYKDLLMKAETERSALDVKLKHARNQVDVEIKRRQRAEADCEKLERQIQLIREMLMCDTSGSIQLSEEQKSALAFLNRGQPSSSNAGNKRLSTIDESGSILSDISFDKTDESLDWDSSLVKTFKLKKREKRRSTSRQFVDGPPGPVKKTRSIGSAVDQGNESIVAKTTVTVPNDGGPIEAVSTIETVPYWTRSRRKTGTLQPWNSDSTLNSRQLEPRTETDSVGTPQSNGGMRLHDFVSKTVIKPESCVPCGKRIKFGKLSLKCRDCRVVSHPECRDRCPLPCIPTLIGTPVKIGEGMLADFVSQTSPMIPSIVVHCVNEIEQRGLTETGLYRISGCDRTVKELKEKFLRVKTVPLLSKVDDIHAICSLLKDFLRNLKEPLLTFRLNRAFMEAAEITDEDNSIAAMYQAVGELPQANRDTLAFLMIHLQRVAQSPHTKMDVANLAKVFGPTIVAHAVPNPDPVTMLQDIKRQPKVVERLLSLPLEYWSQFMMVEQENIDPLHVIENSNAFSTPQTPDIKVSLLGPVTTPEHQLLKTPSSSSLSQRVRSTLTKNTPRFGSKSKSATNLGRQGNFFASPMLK
The experiment in a line: MgcRacGAP GTPase-activating activity inhibitors, confirmation, biochemical, ADP Hunter fluorescence, primary and confirmatory (AID 624330). The class given is functional.

The target of test [9] is FAD-linked sulfhydryl oxidase ALR (Homo sapiens, UniProt P55789). The experiment in a line: inhibitors of human ALR sulfhydryl oxidase, dose response, biochemical, H2O2 detection, luminescence, cherry-pick (AID 493248).
Test [10] deals with T3, Protein RecA (Mycobacterium tuberculosis, UniProt P9WHJ3).
T3 sequence (P9WHJ3 whole entry): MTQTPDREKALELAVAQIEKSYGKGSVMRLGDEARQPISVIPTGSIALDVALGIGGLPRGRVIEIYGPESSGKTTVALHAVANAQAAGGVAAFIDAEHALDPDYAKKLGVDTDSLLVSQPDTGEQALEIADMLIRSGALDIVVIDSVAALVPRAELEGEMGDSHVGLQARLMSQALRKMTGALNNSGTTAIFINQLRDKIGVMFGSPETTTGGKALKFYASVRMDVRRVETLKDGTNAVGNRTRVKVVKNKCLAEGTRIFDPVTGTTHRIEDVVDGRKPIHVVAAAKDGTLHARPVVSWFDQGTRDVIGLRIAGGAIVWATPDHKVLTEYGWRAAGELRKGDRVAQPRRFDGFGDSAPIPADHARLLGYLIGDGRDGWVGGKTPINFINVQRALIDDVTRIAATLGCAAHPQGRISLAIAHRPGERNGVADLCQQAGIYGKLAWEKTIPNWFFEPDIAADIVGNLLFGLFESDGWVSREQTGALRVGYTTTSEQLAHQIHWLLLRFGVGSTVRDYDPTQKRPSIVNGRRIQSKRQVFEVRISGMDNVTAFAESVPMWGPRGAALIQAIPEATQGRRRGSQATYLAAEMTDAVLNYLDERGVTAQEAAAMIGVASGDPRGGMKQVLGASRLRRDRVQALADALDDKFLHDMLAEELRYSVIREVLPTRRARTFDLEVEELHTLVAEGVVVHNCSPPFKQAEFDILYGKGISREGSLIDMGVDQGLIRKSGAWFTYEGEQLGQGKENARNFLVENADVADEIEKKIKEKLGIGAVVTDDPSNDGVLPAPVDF
The experiment in a line: Fluorescence Cell-Free Homogeneous Dose Retest to Identify Inhibitors of RecA-Intein Splicing Activity. [Related pubchem assays (depositor defined):AID2097, AID2223, AID489010, AID492950]. The class given is functional.

Test [11] concerns BJ. The test is described as follows: cytotoxicity toward BJ-TERT fibroblasts, dose response, cell-based, RAS-independent, luminescence (AID 1933). The class given is functional. The note with it: Homo sapiens.
Test [12] concerns BJ. The experiment in a line: cells. It is filed as functional, cell-based. The note with it: Homo sapiens.
A short description of test [13]: cytotoxicity toward DRD oncogenic fibroblasts, dose response, cell-based, non-viral oncogenic, luminescence (AID 1934). The class given is functional. The note with it: Homo sapiens.
For test [14], the system named is BJ. The experiment in a line: cytotoxicity toward BJ-TERT-LT-ST fibroblasts, dose response, cell-based, RAS-independent, luminescence (AID 1935).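 Note: BJ fibroblasts immortalized with TERT plus LT and ST oncogenes.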 The class given is functional. Particulars: Homo sapiens.
For test [15], the target named is T4, Replicative DNA helicase DnaB (Mycobacterium tuberculosis, UniProt P9WMR3).
T4 sequence (P9WMR3 whole entry): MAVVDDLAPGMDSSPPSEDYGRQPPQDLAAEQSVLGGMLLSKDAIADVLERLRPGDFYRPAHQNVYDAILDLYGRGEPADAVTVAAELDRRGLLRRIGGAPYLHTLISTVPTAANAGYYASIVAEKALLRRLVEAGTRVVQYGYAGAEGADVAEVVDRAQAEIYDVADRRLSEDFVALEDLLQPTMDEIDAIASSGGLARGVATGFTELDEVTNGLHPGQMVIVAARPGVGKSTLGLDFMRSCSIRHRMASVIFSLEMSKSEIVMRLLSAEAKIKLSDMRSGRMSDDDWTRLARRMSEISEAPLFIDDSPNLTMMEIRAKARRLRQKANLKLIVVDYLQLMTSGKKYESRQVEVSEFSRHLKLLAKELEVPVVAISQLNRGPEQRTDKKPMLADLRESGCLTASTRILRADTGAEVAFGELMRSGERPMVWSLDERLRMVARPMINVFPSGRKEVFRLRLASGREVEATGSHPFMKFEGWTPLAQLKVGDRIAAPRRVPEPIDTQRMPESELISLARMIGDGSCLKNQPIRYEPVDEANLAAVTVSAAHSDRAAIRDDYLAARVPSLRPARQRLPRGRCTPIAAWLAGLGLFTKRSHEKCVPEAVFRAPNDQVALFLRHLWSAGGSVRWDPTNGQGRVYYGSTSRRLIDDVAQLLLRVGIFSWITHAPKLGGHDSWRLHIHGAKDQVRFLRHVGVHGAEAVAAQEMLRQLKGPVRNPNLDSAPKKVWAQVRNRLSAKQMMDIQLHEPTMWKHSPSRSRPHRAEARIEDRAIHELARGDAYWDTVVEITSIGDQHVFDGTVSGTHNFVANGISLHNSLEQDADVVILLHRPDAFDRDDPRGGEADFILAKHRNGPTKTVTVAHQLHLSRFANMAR
The test is described as follows: DnaB intein splicing inhibitors, dose response, biochemical, cell-free fluorescence (AID 449749). The class given is functional.

Test [16] concerns the target T5, Aminopeptidase N (Plasmodium falciparum FcB1/Columbia, UniProt O96935).
T5 sequence (O96935 whole entry): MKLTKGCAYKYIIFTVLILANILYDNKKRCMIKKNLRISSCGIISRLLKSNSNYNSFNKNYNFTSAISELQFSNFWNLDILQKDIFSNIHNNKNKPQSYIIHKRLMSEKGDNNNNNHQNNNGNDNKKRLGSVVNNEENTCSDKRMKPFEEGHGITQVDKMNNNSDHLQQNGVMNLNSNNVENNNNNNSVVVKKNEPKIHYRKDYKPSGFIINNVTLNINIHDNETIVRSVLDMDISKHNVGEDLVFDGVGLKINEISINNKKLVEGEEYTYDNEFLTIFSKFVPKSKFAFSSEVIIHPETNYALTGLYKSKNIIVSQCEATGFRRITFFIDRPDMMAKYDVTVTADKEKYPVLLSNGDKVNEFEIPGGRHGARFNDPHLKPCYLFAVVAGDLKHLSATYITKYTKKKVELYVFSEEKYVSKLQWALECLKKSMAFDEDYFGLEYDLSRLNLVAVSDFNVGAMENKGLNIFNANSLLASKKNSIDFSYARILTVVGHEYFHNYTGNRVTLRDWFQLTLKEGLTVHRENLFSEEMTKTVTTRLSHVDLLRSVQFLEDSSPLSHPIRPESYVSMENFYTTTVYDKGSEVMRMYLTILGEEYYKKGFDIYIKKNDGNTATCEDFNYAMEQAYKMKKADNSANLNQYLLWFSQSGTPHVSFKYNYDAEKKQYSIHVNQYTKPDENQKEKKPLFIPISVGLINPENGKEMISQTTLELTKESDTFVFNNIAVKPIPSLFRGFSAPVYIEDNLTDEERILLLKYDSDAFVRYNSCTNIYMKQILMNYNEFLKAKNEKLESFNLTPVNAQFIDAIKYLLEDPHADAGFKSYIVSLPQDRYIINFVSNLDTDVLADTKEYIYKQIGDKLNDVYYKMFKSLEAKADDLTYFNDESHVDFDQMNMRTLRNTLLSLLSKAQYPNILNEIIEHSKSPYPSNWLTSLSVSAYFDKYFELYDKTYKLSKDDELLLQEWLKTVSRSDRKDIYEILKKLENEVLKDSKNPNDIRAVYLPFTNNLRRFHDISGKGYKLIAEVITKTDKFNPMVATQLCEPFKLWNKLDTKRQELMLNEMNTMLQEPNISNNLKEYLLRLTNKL
The experiment in a line: P. falciparum M1AAP inhibitors, biochemical, fluorogenic H-Leu-NHMec substrate, 1536-well (AID 1445). Also noted: species or system Plasmodium falciparum 3D7, 3D7.

In test [17] the target is T6, Leucine aminopeptidase (Plasmodium falciparum 3D7, UniProt Q8IL11).
T6 sequence (Q8IL11 whole entry): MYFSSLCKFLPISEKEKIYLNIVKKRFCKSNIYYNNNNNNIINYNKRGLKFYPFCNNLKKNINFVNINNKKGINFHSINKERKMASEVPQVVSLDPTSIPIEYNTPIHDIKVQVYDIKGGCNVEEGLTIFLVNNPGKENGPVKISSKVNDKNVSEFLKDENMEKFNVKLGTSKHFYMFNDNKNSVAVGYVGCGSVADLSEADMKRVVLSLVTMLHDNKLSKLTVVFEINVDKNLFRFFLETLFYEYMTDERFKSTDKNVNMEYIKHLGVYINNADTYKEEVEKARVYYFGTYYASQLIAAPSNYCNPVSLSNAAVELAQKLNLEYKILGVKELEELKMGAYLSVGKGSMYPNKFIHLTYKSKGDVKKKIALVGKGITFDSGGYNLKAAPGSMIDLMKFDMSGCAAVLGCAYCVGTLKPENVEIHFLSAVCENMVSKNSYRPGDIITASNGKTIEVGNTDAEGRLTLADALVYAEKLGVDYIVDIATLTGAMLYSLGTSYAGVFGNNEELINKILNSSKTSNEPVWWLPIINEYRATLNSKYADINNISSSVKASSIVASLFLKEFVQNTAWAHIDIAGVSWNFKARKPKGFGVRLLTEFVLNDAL
The experiment in a line: P. falciparum M17LAP inhibitors, primary screen, biochemical, fluorogenic H-Leu-NHMec substrate, 1536-well (AID 1619). It is filed as functional.

Chain of Induced myeloid leukemia cell differentiation protein Mcl-1 (Q07820 whole entry): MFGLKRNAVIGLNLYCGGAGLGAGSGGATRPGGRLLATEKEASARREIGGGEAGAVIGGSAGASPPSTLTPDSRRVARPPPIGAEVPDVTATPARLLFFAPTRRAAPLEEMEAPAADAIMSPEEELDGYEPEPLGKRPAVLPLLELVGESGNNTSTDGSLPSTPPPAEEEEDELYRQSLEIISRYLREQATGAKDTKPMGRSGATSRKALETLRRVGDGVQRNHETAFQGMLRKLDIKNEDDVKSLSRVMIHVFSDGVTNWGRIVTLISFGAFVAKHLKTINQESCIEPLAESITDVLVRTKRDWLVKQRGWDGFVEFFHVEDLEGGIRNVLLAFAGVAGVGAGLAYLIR
Chain of 26S proteasome non-ATPase regulatory subunit 14 (O00487 whole entry): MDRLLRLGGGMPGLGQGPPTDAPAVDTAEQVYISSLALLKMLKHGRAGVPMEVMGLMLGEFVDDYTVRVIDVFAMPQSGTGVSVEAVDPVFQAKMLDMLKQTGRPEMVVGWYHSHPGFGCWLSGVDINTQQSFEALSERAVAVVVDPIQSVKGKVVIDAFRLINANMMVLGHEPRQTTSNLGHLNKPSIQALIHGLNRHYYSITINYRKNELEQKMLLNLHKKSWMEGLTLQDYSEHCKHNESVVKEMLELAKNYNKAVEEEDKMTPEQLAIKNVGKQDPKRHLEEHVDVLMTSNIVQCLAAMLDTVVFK
Chain of FAD-linked sulfhydryl oxidase ALR (P55789 whole entry): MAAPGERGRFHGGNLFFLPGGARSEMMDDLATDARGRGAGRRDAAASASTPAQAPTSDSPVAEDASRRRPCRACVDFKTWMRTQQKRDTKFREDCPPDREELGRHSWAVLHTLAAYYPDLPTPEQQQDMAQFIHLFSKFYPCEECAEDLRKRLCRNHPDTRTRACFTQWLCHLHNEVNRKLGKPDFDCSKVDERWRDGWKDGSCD
Chain of 72 kDa type IV collagenase (P08253 whole entry): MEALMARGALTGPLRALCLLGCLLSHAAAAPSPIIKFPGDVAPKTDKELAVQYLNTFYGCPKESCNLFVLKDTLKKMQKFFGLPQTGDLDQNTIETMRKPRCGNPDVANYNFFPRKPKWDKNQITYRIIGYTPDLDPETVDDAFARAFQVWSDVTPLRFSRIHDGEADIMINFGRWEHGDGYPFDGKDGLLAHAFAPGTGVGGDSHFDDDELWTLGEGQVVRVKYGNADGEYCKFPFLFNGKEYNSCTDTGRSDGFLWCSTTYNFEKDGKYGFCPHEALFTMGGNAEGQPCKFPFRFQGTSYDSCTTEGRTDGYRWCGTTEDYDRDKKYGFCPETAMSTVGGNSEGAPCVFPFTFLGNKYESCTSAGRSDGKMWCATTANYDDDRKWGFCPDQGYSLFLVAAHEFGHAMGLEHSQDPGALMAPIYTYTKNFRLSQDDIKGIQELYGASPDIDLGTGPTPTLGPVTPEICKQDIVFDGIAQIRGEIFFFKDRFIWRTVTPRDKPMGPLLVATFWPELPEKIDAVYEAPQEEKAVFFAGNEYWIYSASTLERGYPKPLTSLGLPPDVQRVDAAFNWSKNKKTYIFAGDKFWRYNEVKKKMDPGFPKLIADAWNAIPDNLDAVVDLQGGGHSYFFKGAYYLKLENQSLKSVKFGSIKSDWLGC

For the compound `Cc1cccc(NC(=O)C2(c3ccc([N+](=O)[O-])cc3)CCCC2)c1`, the AC50 in test [1] is 14 µM (active).

Consider `COc1ccc2nc(N3C(=O)/C(=C/c4ccc(Cl)cc4)NC3=S)sc2c1`, for which the half-maximal inhibitory concentration (IC50) in test [2] is 1.5 µM (active); in test [3] it was 13.3 µM (active); in test [4] it was 33.5 µM (active); in test [6], 53 µM (active). In addition, the EC50 in test [5] was 28.3 µM (active); in test [7], 30.4 µM (active).

In the case of `Cc1ccc(S(=O)(=O)Nc2ccc(N(C)C)cc2)cc1`, the IC50 is 33.1 µM (active) in [8] and 10.7 µM (not active) in test [2]. In addition, the AC50 in test [9] is 4.46 µM (active).

In the case of `O=C(CCl)Nc1c(C(=O)Nc2ccc3c(c2)OCCO3)oc2ccccc12`, the EC50 is 1.06 µM (active) in test [10]; 3.66 µM (active) in test [11]; 29.4 µM (active) in test [12]; 19 µM (active) in test [13]; > 150 µM (inconclusive) in test [14]. For the same compound, the AC50 in test [15] is 7.89 µM (active).

Turning to `CCc1nnc(NC(=O)CSc2nnc(-c3ccc(NS(=O)(=O)c4ccccc4)cc3)o2)s1`, the half-inhibitory concentration (IC50) in [16] was 59.8 µM (active); in test [17], < 1 µM (active).

Take `Cc1ccc(C(=O)OCC(=O)Nc2ccc(N(C)C)cc2)cc1NC(=O)c1ccco1`: the half-inhibitory concentration (IC50) in test [2] was 3.67 µM (not active).
